Results as given in patent US4454290A, “Stevioside analogs” (Dynapol, priority 1981, dated 1984).
Counter-ions that a name gives are not always drawn.

Experiments:
[1] = Stability test: anaerobic incubation with fresh rat cecal contents, 37° C.; assay type: in vitro ADME
Method: An important property of these stevioside analogs is their stability and resistance to conversion to steviol at the conditions of the mammalian gastrointestinal tract. […] At these conditions, no degradation to steviol occurs to a limit of detection of 0.13%.
Steviolbioside, 3-sulfopropyl ester, potassium salt prepared in Part B. was incubated anaerobically for three days at 37° C. with 5 wt% fresh rat cecal contents, at concentrations of 0.25, 0.5, and 1.0 mg/ml in sterile Krebs-Ringer 0.25M phosphate buffer (pH 7.4) containing 0.25 mg/ml dithiothreitol and 0.25 mg/ml α-D-glucose. […] No steviol (Rf =0.95; tR =31.3 min) was detected. After 3 days the bacterial cells were sedimented by centrifugation. The sediment was extracted (THF), as was the supernatant, after lyophilization. […] With a detection limit of […], as little as 0.03 and 0.13 percent degradation to steviol could have been detected for the sediment and supernatant fractions, respectively.

[2] = Taste test by a group of volunteers / sensory comparison; assay type: in vivo; details: for Pm, potency compared to sucrose = 1, molar basis / Pw, potency compared to sucrose = 1, weight basis / Taste Character, Bitter / Taste Character, Other / Taste Character, Salty / Taste Character, Sour / Taste Character, Sweet / Taste Character, Sweet/bitter, other: 12 judgements, stevioside 500 ppm, Example 1 534 ppm, saccharin 330 ppm; for taste of the material: concentration not given
Method: Steviolbioside, 3-sulfopropyl ester, potassium salt prepared in Part B. was dissolved in distilled water at a concentration of 0.2 wt% and tasted by a group of volunteers. […] The solution was diluted to 0.0534 wt% and retasted.

[3] = Use in comestibles (taste of sweetened beverages and gelatin); assay type: in vivo
Method: Based on the results of Part D, one can employ the compound of Part B as a sweetener for comestibles. In exemplary uses 0.08% by weight of the compound is dissolved in an unsweetened cola beverage, a like concentration of the compound is added to an unsweetened lemonade and to coffee. […] In two other cases, 0.04% by weight is added to coffee along with 0.02% by weight of saccharin and 3% by weight of sucrose, respectively. […] B.
Cups of coffee are prepared: To each is added 500 ppm by weight, basis solution, of one of each of the sweeteners prepared in Examples II-VIII. The coffees present a sweetened taste when sampled.
Gelatin, food color and fruit flavor are dissolved in water at levels suitable for forming a jelled food product. The solution is not sweet. The materials of Claims II-VIII are each added to separate samples in amounts of 600 ppm and the samples are cast into jelled products. The resulting gelatin products are sweet.

[4] = Taste test by a group of volunteers / sensory comparison; assay type: in vivo; details: for Ip, sample intensity relative to 10% sucrose: mean value(2 Sm), 12 judgements, stevioside 500 ppm, Example 1 534 ppm, saccharin 330 ppm
[5] = Wingard et al., Experientia; cited from earlier work
[6] = Bridel et al., cited from earlier work
[7] = likelihood suggested by Wingard et al., 1980; cited from earlier work
ATP synthetase = details: in cell mitochondria; Vignais 1966; cited from earlier work
[8] = Dorfman et al.; cited from earlier work
[9] = likelihood suggested by Wingard et al., 1980; cited from earlier work; remark: listed apart in the source
[10] = compared with material of Example I
[11] = 1000 ppm by weight in distilled water

C=C1C[C@@]23CC[C@H]4[C@@](C)(CCC[C@@]4(C)C(=O)OCCCS(=O)(=O)O)[C@@H]2CC[C@]1(O[C@@H]1O[C@H](CO)[C@@H](O)[C@H](O)[C@H]1O[C@@H]1O[C@H](CO)[C@@H](O)[C@H](O)[C@H]1O)C3 [Example I, Steviolbioside, 3-sulfopropyl ester, potassium salt]
time within which all the initial ester was consumed ([1]; 5 wt% fresh rat cecal contents, 0.25, 0.5 and 1.0 mg/ml, pH 7.4, 37° C., anaerobic, TLC and HPLC): ≤ 24 h | steviol in THF extracts (HPLC) ([1]; after 3 days, sediment and supernatant extracts): none to be detectable | steviol detected (TLC and HPLC of incubation) ([1]; rat cecal contents, 37° C.): No steviol | degradation product formed ([1]; rat cecal contents, within 24 h, TLC and HPLC): apparently only the sulfopropyl ester of steviol | taste quality ([2]; 0.0534 wt%): very sucrose-like, having negligible off-flavors | sweetness equivalent ([2]; 0.0534 wt% in distilled water): 8-9 wt% sucrose | taste of solution ([2]; 0.2 wt% in distilled water): very intense sweet taste | Pm, potency compared to sucrose = 1, molar basis [2]: 360(20) | Pw, potency compared to sucrose = 1, weight basis [2]: 160(10) | Taste Character, Bitter [2]: 4(6) % | Taste Character, Other [2]: 4(4) % | Taste Character, Salty [2]: 0(0) % | Taste Character, Sour [2]: 0(0) % | Taste Character, Sweet [2]: 92(6) % | Taste Character, Sweet/bitter, other [2]: 92/8 | taste compared with saccharin and stevioside ([2]; Table II): superior to the tastes of saccharin and stevioside itself | sweetness in comestibles, with co-sweetener ([3]; 0.04% by weight in coffee with 0.02% saccharin or 3% sucrose): sweetness is imparted | sweetness in comestibles ([3]; 0.08% by weight in unsweetened cola, unsweetened lemonade and coffee): sweetness is imparted | Ip, sample intensity relative to 10% sucrose [4]: 0.84(0.06)

C=C1C[C@@]23CC[C@H]4[C@@](C)(CCC[C@@]4(C)C(=O)OCCCS(=O)(=O)O)[C@@H]2CC[C@]1(O[C@@H]1O[C@H](CO)[C@@H](O)[C@H](O)[C@H]1O[C@@H]1O[C@H](CO)[C@@H](O)[C@H](O)[C@H]1O)C3 [II, steviolbioside, 3-sulfopropyl ester, sodium salt]
stability properties evaluated as in Part C of Example I [1, 10]: same advantageous properties | taste properties evaluated as in Part D of Example I [2, 10]: same advantageous properties | use in comestibles evaluated as in Part E of Example I [3, 10]: same advantageous properties

C=C1C[C@@]23CC[C@H]4[C@@](C)(CCC[C@@]4(C)C(=O)OCCCCS(=O)(=O)O)[C@@H]2CC[C@]1(O[C@@H]1O[C@H](CO)[C@@H](O)[C@H](O)[C@H]1O[C@@H]1O[C@H](CO)[C@@H](O)[C@H](O)[C@H]1O)C3 [III, steviolbioside, 4-sulfobutyl ester, sodium salt]
taste of the material [2]: sweet, like the material of Example I

O=C1NS(=O)(=O)c2ccccc21 [Saccharin, saccharin, reference compound]
Pm, potency compared to sucrose = 1, molar basis [2]: 180(20) | Pw, potency compared to sucrose = 1, weight basis [2]: 300(30) | Taste Character, Bitter [2]: 12(8) % | Taste Character, Other [2]: 3(2) % | Taste Character, Salty [2]: 0(0) % | Taste Character, Sour [2]: 0(0) % | Taste Character, Sweet [2]: 85(6) % | Taste Character, Sweet/bitter, other [2]: 85/15 | Ip, sample intensity relative to 10% sucrose [4]: 0.98(0.09)

C=C1C[C@@]23CC[C@H]4[C@@](C)(CCC[C@@]4(C)C(=O)O[C@@H]4O[C@H](CO)[C@@H](O)[C@H](O)[C@H]4O)[C@@H]2CC[C@]1(O[C@@H]1O[C@H](CO)[C@@H](O)[C@H](O)[C@H]1O[C@@H]1O[C@H](CO)[C@@H](O)[C@H](O)[C@H]1O)C3 [Stevioside, stevioside]
Pm, potency compared to sucrose = 1, molar basis [2]: 440(30) | Pw, potency compared to sucrose = 1, weight basis [2]: 190(10) | Taste Character, Bitter [2]: 30(10) % | Taste Character, Other [2]: 8(5) % | Taste Character, Salty [2]: 0(0) % | Taste Character, Sour [2]: 0(0) % | Taste Character, Sweet [2]: 62(10) % | Taste Character, Sweet/bitter, other [2]: 62/38 | degradation to steviol [5]: essentially quantitative degradation to steviol | Ip, sample intensity relative to 10% sucrose [4]: 0.94(0.06) | sweetness relative to sucrose [6]; 1931: about 300 times as sweet as sucrose | bitterness of taste [6]: substantial degree of bitterness | conversion to steviol in vivo [7]: largely converted to steviol in vivo

C=C1C[C@@]23CC[C@H]4[C@@](C)(CCC[C@@]4(C)C(=O)OCC(=O)O)[C@@H]2CC[C@]1(O[C@@H]1O[C@H](CO)[C@@H](O)[C@H](O)[C@H]1O[C@@H]1O[C@H](CO)[C@@H](O)[C@H](O)[C@H]1O)C3 [VII, steviolbioside, carboxymethyl ester, sodium salt]
taste of the material [2]: sweet

C=C1C[C@@]23CC[C@H]4[C@@](C)(CCC[C@@]4(C)C(=O)OCCC(S(=O)(=O)O)S(=O)(=O)O)[C@@H]2CC[C@]1(O[C@@H]1O[C@H](CO)[C@@H](O)[C@H](O)[C@H]1O[C@@H]1O[C@H](CO)[C@@H](O)[C@H](O)[C@H]1O)C3 [VIII]
sweetness intensity equal to sucrose solution [2, 11]: 10-12 % sucrose | taste of solution [4, 11]: exceedingly sweet

C=C1C[C@@]23CC[C@H]4[C@@](C)(CCC[C@@]4(C)C(=O)OCCC(N)C(=O)O)[C@@H]2CC[C@]1(O[C@@H]1O[C@H](CO)[C@@H](O)[C@H](O)[C@H]1O[C@@H]1O[C@H](CO)[C@@H](O)[C@H](O)[C@H]1O)C3 (some centres unmarked) [VI]
taste of the material [2]: sweet and sucrose like

C=C1C[C@@]23CC[C@H]4[C@@](C)(CCC[C@@]4(C)C(=O)OC(CCC(=O)O)C(=O)O)[C@@H]2CC[C@]1(O[C@@H]1O[C@H](CO)[C@@H](O)[C@H](O)[C@H]1O[C@@H]1O[C@H](CO)[C@@H](O)[C@H](O)[C@H]1O)C3 (some centres unmarked) [V]
taste of the material [2]: sweet

C=C1C[C@@]23CC[C@H]4[C@@](C)(CCC[C@@]4(C)C(=O)O)[C@@H]2CC[C@]1(O)C3 [steviol]
inhibition of ATP synthetase compared with atractyligenin (ATP synthetase): even more potent inhibitor of ATP synthetase | antiandrogenic effects [8]: antiandrogenic effects | absorption through the gastrointestinal tract wall [9]: completely absorbed
